From US11072598B2, “Somatostatin modulators and uses thereof” (CRINETICS PHARMACEUTICALS, INC., priority 2017, dated 2021)

Target: T1, human somatostatin receptor subtype 2 (Homo sapiens, UniProt P30874)
T1 construct: expressed in transfected cells
Assay: cAMP functional assay for SSTR2 agonists
Format: cell-based
Conditions: inhibition of cAMP activities via human SST2 receptor (SSTR2), CHO-K1 cells; read-out: EC50
From the text: General overview: All five SSTR subtypes are Gi coupled G-protein coupled receptors (GPCRs) that lead to decreases in intracellular cyclic AMP (cAMP) when activated by an agonist. Therefore, measurement of intracellular cAMP levels can be used to assess whether compounds of the invention are agonists of SSTR subtypes (John Kelly, Troy Stevens, W. Joseph Thompson, and Roland Seifert, Current Protocols in Pharmacology, 2005, 2.2.1-2.2). One example of an intracellular cAMP assay is described below. cAMP assay protocol:
Four days prior to the assay, 5,000 Chinese hamster ovary cells (CHO-K1, ATCC #CCL-61) stably expressing the human somatostatin receptor subtype 2 are plated in each well of a 96-well tissue culture-treated plate in Ham's F12 growth media (ThermoFisher #10-080-CM) supplemented with 10% donor bovine serum (Gemini Bio-Products #100-506), 100 U/mL penicillin; 100 ug/mL streptomycin; 2 mM L-glutamine (Gemini Bio-Products #400-110) and 0.2 mg/mL hygromycin B (GoldBio #31282-04-9). The cells are cultured at 37° C., 5% CO2 and 95% humidity. On the day of the assay, the media is aspirated and the cells are treated with 50 μL of 1.6 μM NKH477 (Sigma #N3290) plus various dilutions of compounds of the invention in assay buffer [1× Hank's Balanced Salt Solution (ThermoFisher #SH3058802), 0.5 mM HEPES pH 7.4, 0.1% bovine serum albumin, 0.2 mM 3-Isobutyl-1-methylxanthine (IBMX, VWR #200002-790)]. The cells are incubated for 20 minutes at 37° C. […] The cells are treated with 50 μL of lysis buffer (HRTF cAMP kit, Cisbio). The lysate is transferred to 384-well plates and cAMP detection and visualization antibodies are added and incubated for 1-24 hours at room temperature. The time-resolved fluorescent signal is read with a Tecan M1000Pro multiplate reader. The intracellular cAMP concentrations are calculated by regression to a standard curve and are plotted vs. the concentration of the compounds of the invention and the EC50 of the compounds are calculated using standard methods. All data manipluations are in GraphPad Prism v6.

T1 sequence (P30874 whole entry): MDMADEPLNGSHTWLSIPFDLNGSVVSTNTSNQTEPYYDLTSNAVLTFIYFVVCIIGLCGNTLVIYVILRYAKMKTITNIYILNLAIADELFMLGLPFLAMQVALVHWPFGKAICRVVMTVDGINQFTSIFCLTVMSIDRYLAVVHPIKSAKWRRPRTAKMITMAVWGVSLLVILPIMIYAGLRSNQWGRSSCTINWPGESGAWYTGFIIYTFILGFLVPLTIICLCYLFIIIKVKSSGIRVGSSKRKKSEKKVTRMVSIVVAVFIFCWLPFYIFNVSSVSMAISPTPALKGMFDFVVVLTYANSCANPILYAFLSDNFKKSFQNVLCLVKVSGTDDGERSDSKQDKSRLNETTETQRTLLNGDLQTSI

SMILES | EC50
Cc1cc(F)cc(-c2cnc(N)c(-c3nc4ccc(Cl)cc4n3C)c2N2CCC(N)CC2)c1 [Compound 1-29, 4-(4-aminopiperidin-1-yl)-3-(6-chloro-1-methyl-1H-1,3-benzodiazol-2-yl)-5-(3-fluoro-5-methylphenyl)pyridin-2-amine] | < 10 nM
COc1cc(F)c2[nH]c(-c3c(N)ncc(-c4cc(C)cc(C)c4)c3N3CCC(N)CC3)nc2c1 [Compound 1-84] | < 10 nM
Cc1cc(F)cc(-c2cnc(N)c(-c3nc4cc(S(N)(=O)=O)ccc4[nH]3)c2N2CCC(N)CC2)c1 [Compound 1-9, 2-[2-amino-4-(4-aminopiperidin-1-yl)-5-(3-fluoro-5-methylphenyl)pyridin-3-yl]-1H-1,3-benzodiazole-5-sulfonamide] | < 10 nM
Nc1ncc(-c2cc(F)cc(F)c2)c(N2CCC(N)CC2)c1-c1nc2cc(Cl)cc(F)c2[nH]1 [Compound 1-82, 4-(4-aminopiperidin-1-yl)-3-(5-chloro-7-fluoro-1H-1,3-benzodiazol-2-yl)-5-(3,5-difluorophenyl)pyridin-2-amine] | < 10 nM
Cc1cc(Cl)cc(-c2cnc(N)c(C=NOC(C)(C)C)c2N2CCC(N)CC2)c1 [Compound 1-38] | < 10 nM
Cc1cc(F)cc(-c2cnc(N)c(C=NOC(C)C)c2N2CCC(N)CC2)c1 [Compound 1-34] | < 10 nM
CON(C)C(=O)c1cccc2nc(-c3c(N)ncc(-c4cc(C)cc(F)c4)c3N3CCC(N)CC3)[nH]c12 [Compound 1-18, 2-[2-amino-4-(4-aminopiperidin-1-yl)-5-(3-fluoro-5-methylphenyl)pyridin-3-yl]-N-methoxy-N-methyl-1H-1,3-benzodiazole-7-carboxamide] | 10 to 100 nM
CNc1ncc(-c2cc(C)cc(F)c2)c(N2CCC(N)CC2)c1-c1nc2ccc(C#N)cc2[nH]1 [Compound 1-70, 2-[4-(4-aminopiperidin-1-yl)-5-(3-fluoro-5-methylphenyl)-2-(methylamino)pyridin-3-yl]-1H-1,3-benzodiazole-6-carbonitrile] | < 10 nM
Cc1cc(C#N)cc(-c2cnc(N)c(-c3nc4cc(Cl)ccc4[nH]3)c2N2CCC(N)CC2)c1 [Compound 1-25, 3-[6-amino-4-(4-aminopiperidin-1-yl)-5-(5-chloro-1H-1,3-benzodiazol-2-yl)pyridin-3-yl]-5-methylbenzonitrile] | < 10 nM
Cc1cc(F)cc(-c2cnc(N)c(-c3nc4ncccc4[nH]3)c2N2CCC(N)CC2)c1 [Compound 1-52, 4-(4-aminopiperidin-1-yl)-5-(3-fluoro-5-methylphenyl)-3-{1H-imidazo[4,5-b]pyridin-2-yl}pyridin-2-amine] | < 10 nM

Next, values leading:

EC50 | SMILES
< 10 nM | COc1cc(F)cc2nc(-c3c(N)ncc(-c4cccc(C)c4)c3N3CCC(N)CC3)[nH]c12 [Compound 1-93, 4-(4-aminopiperidin-1-yl)-3-(5-fluoro-7-methoxy-1H-1,3-benzodiazol-2-yl)-5-(3-methylphenyl)pyridin-2-amine]
< 10 nM | Cc1cc(F)cc(-c2cnnc(-c3cc4cccc(Cl)c4[nH]3)c2N2CCC(N)CC2)c1 [Compound 3-7, 1-[3-(7-chloro-1H-indol-2-yl)-5-(3-fluoro-5-methylphenyl)pyridazin-4-yl]piperidin-4-amine]
< 10 nM | Cc1cc(F)cc(-c2cnnc(-c3[nH]c4cc(Cl)ccc4c3Cl)c2N2CCC(N)CC2)c1 [Compound 3-14, 1-[3-(3,6-dichloro-1H-indol-2-yl)-5-(3-fluoro-5-methylphenyl)pyridazin-4-yl]piperidin-4-amine]
< 10 nM | COc1ccc2cc(-c3nncc(-c4cc(C)cc(F)c4)c3N3CCC(N)CC3)[nH]c2c1 [Compound 3-5, 1-[5-(3-fluoro-5-methylphenyl)-3-(6-methoxy-1H-indol-2-yl)pyridazin-4-yl]piperidin-4-amine]
< 10 nM | COc1ncc(-c2cc(C)cc(F)c2)c(N2CCC(N)CC2)c1-c1nc2cc(C#N)ccc2[nH]1 [Compound 2-8, 2-[4-(4-aminopiperidin-1-yl)-5-(3-fluoro-5-methylphenyl)-2-methoxypyridin-3-yl]-1H-1,3-benzodiazole-5-carbonitrile]
